Experiment [1] deals with T1, system Xc^− (Homo sapiens, UniProt Q9UPY5).
T1 sequence (Q9UPY5 1-501): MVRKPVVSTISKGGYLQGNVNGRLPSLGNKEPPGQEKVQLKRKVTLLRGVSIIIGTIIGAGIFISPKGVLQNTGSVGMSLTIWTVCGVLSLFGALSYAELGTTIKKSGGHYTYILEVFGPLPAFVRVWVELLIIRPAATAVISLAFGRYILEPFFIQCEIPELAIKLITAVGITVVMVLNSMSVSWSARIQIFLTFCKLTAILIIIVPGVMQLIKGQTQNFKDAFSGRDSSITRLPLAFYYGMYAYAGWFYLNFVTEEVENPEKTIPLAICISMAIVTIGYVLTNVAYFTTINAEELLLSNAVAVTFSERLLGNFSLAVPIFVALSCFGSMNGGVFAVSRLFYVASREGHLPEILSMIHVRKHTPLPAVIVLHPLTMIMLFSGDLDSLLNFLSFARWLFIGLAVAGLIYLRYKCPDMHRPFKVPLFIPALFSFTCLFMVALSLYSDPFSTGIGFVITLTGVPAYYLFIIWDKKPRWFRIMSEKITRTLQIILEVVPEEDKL
T1 sequence (P08195 1-529 partner): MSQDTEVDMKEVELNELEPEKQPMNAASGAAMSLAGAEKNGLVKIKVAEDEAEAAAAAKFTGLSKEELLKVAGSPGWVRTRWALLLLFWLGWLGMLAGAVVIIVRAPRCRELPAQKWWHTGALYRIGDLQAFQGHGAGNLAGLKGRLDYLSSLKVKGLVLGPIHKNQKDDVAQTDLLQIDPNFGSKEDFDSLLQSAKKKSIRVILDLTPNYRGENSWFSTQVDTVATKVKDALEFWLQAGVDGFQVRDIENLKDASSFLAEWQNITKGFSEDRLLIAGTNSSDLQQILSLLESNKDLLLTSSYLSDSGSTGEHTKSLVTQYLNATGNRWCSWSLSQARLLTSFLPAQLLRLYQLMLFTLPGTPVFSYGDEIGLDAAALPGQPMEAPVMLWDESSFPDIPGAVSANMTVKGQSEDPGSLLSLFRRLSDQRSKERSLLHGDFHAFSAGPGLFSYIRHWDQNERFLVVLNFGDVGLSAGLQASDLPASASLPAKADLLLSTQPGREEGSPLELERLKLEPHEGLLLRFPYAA
The experiment is described as follows: [^14C]L-Cystine uptake assay. As to conditions: H4 cells, sodium-free HEPES buffer, 0.5 μM L-[14C]Cystine and 4.5 μM L-Cystine, 1 hour at 37° C.; for IC50: read-out: pIC50 [^14C] L-Cystine uptake assay (converted). Details: endogenous in cells; host or cells: H4 cells. Type of experiment: cell-based. Summed up:
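Compound effect is given as pIC50, taken between controls of 1% DMSO and 50 μM Erastin. Human H4 cells were pretreated 15 min with compound in sodium-free buffer, then took up 0.5 μM [14C]cystine with 4.5 μM cold cystine for 1 hour at 37° C, read by scintillation proximity counting.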

The target of experiment [2] is T1, system Xc^−. Nature of the experiment: Cystine-induced glutamate release assay. It is filed as cell-based. On the set-up: endogenous in cells; host or cells: H4 cells. As to conditions: H4 cells, sodium-free HEPES buffer, 50 μM L-Cystine, 2 hours, Amplex Red glutamate readout; for IC50: read-out: pIC50 Cystine-induced glutamate release assay (converted). In short, it runs like this: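 IC50 (reported as pIC50) normalized to DMSO 1% and Erastin 50 μM controls, from Amplex Red fluorescence of glutamate exported into supernatant. H4 cells were washed into sodium-free buffer to exclude EAAT transport, then given compound with 50 μM L-cystine for 2 h in the incubator.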

With `O=C(CN1C(=O)Cc2ncccc2-c2c(F)cncc21)Nc1ccc(C(F)(F)F)cc1` [#78, 2-(3-fluoro-9-oxo-5,8,12-triazatricyclo[9.4.0.0^2,7]pentadeca-1(11),2(7),3,5,12,14-hexaen-8-yl)-N-[4-(trifluoromethyl)-phenyl]acetamide], the IC50 on system Xc^− [1] and at system Xc^− [2] was 100 to 501 nM in each case.
On to `CC1C(=O)N(CC(=O)Nc2ccc(Cl)c(F)c2)c2cc(N3[C@@H]4CCC[C@H]3C4)nc(F)c2-c2cccnc21` (single isomer, unassigned) [#269, 2-[5-(6-azabicyclo[3.1.1]heptan-6-yl)-3-fluoro-10-methyl-9-oxo-4,8,12-triazatricyclo[9.4.0.0^2,7]pentadeca-1(11),2(7),3,5,12,14-hexaen-8-yl]-N-(4-chloro-3-fluoro-phenyl)acetamide], for which the IC50 on system Xc^− [1] and on system Xc^− [2] was 39.8 to 100 nM each time.
For `Cc1cc2c(cc1C)N(CC(=O)Nc1ccc(Cl)c(F)c1)C(=O)Cc1ncccc1-2` [#3, N-(4-chloro-3-fluoro-phenyl)-2-(9,10-dimethyl-6-oxo-5-H-pyrido[2,3-d][1]benzazepin-7-yl)acetamide], the IC50 on system Xc^− [1] was 39.8 to 100 nM; on system Xc^− [2], 100 to 501 nM.
Consider `Cc1c2c(cc(=O)n1C)N(CC(=O)Nc1ccc(Cl)c(F)c1)C(=O)C(C)c1ccccc1-2` (centres unmarked) [#355, N-(4-chloro-3-fluoro-phenyl)-2-(1,2,7-trimethyl-3,6-dioxo-7H-pyrido[3,4-a][3]benzazepin-5-yl)acetamide], for which the figures for the IC50 at system Xc^− [1] and at system Xc^− [2] were 39.8 to 100 nM and 15.8 to 39.8 nM, respectively.
Consider `Cc1cc2c(c(Cl)n1)-c1cncnc1C(C)C(=O)N2CC(=O)Nc1ccc(Cl)c(F)c1` (single isomer, unassigned) [#220, Enantiomer (8S) or (8R) of 2-[15-chloro-8,13-dimethyl-9-oxo-4,6,10,14-tetrazatricyclo[9.4.0.0^2,7]pentadeca-1(15),2,4,6,11,13-hexaen-10-yl]-N-(4-chloro-3-fluoro-phenyl)acetamide], for which the IC50 at system Xc^− [1] and at system Xc^− [2] was < 15.8 nM in each case.
With `CC1C(=O)N(CC(=O)Nc2ccc(C(F)F)cc2)c2cc(N3[C@@H]4CCC[C@H]3C4)nc(F)c2-c2cccnc21` (single isomer, unassigned) [#287, 2-[5-(6-azabicyclo[3.1.1]heptan-6-yl)-3-fluoro-10-methyl-9-oxo-4,8,12-triazatricyclo[9.4.0.0^2,7]pentadeca-1(15),2,4,6,11,13-hexaen-8-yl]-N-[4-(difluoromethyl)phenyl]acetamide], the IC50 on system Xc^− [1] was < 15.8 nM; on system Xc^− [2] it was 15.8 to 39.8 nM.
As to `Cc1cc2c(c(C(F)F)n1)-c1ccccc1CC(=O)N2CC(=O)Nc1ccc(C(F)(F)F)cc1` (single isomer, unassigned) [#194, Atropisomer aR or aS of 2-[1-(difluoromethyl)-3-methyl-6-oxo-7H-pyrido[4,3-d][3]benzazepin-5-yl]-N-[4-(trifluoromethyl)phenyl]acetamide], the “pIC50 [^14C] L-Cystine uptake assay” value against system Xc^− [1] is reported as “D (plC50 > about 7.80)”. Besides, at system Xc^− [2], the “pIC50 Cystine-induced glutamate release assay” value is “C (about 7.40 < pIC50 ≤ about 7.80)”.
As for `Cc1cc2c(c(F)n1)-c1ncccc1CC(=O)N2CC(=O)Nc1ccc(Cl)c(F)c1` [#41, N-(4-chloro-3-fluoro-phenyl)-2-(15-fluoro-13-methyl-9-oxo-3,10,14-triazatricyclo [9.4.0.0^2,7]pentadeca-1(11),2(7),3,5,12,14-hexaen-10-yl)acetamide], the IC50 at system Xc^− [1] and on system Xc^− [2] was 100 to 501 nM each time.
For the molecule `Cc1cc2c(c(F)n1)-c1cccnc1C(O)C(=O)N2CC(=O)Nc1ccc(Br)c(Cl)c1` (single isomer, unassigned) [#213, Enantiomer (10S) or (10R) of N-(4-bromo-3-chloro-phenyl)-2-[(10S)-3-fluoro-10-hydroxy-5-methyl-9-oxo-4,8,12-triazatricyclo[9.4.0.0^2,7]pentadeca-1(11),2(7),3,5,12,14-hexaen-8-yl]acetamide], the IC50 at system Xc^− [1] and on system Xc^− [2] was 15.8 to 39.8 nM throughout.
Regarding `Cc1cc2c(c(F)n1)-c1ccccc1C(C)C(=O)N2CC(=O)Nc1ccc(Cl)c(F)c1` (centres unmarked) [#402, N-(4-chloro-3-fluoro-phenyl)-2-(1-fluoro-3,7-dimethyl-6-oxo-7H-pyrido[3,4-a][3]benzazepin-5-yl)acetamide], the IC50 at system Xc^− [1] and at system Xc^− [2] was < 15.8 nM throughout.
As to `Cc1cc2c(c(Cl)n1)-c1ccccc1CC(=O)N2CC(=O)Nc1ccc(C(F)(F)F)cc1` (single isomer, unassigned) [#189, Atropisomer aR or aS of 2-(1-chloro-3-methyl-6-oxo-7H-pyrido[4,3-d][3]benzazepin-5-yl)-N-[4-(trifluoromethyl)phenyl]acetamide], the “pIC50 [^14C] L-Cystine uptake assay” value against system Xc^− [1] is “D (plC50 > about 7.80)”. The “pIC50 Cystine-induced glutamate release assay” value against system Xc^− [2] is “D (plC50 > about 7.80)”.
With `Cc1cc2c(cn1)-c1ccnn1CC(=O)N2CC(=O)Nc1ccc(C(F)(F)F)cc1` [#48, 2-(12-methyl-8-oxo-5,6,9,13-tetrazatricyclo[8.4.0.0^2,6]tetradeca-1(10),2,4,11,13-pentaen-9-yl)-N-[4-(trifluoromethyl)phenyl]acetamide], the IC50 on system Xc^− [1] and on system Xc^− [2] was 100 to 501 nM in each case.
For `CC1C(=O)N(CC(=O)Nc2ccc(C(F)F)cc2)c2cc(N3C[C@H]4C[C@@H](C3)C4(F)F)nc(F)c2-c2cccnc21` (single isomer, unassigned) [#290, 2-[5-(6,6-difluoro-3-azabicyclo[3.1.1]heptan-3-yl)-3-fluoro-10-methyl-9-oxo-4,8,12-triazatricyclo[9.4.0.0^2,7]pentadeca-1(11),2(7),3,5,12,14-hexaen-8-yl]-N-[4-(difluoromethyl)phenyl]acetamide], the values for the IC50 at system Xc^− [1] and at system Xc^− [2] were 15.8 to 39.8 nM and 39.8 to 100 nM, respectively.
Turning to `COc1cc2c(c(F)n1)-c1cccnc1C(C)C(=O)N2CC(=O)Nc1ccc(C(F)F)cc1` (single isomer, unassigned) [#214, Enantiomer (10S) or (10R) of N-[4-(difluoromethyl)phenyl]-2-[3-fluoro-5-methoxy-10-methyl-9-oxo-4,8,12-triazatricyclo[9.4.0.0^2,7]pentadeca-1(15),2(7),3,5,11,13-hexaen-8-yl]acetamide], the “pIC50 [^14C] L-Cystine uptake assay” value on system Xc^− [1] was “C (about 7.40 < pIC50 ≤ about 7.80)”. The “pIC50 Cystine-induced glutamate release assay” value on system Xc^− [2] is recorded as “D (plC50 > about 7.80)”.
As to `Cc1cc2c(c(O)n1)-c1cccnc1C(C)C(=O)N2CC(=O)Nc1ccc(C(F)(F)F)cc1` (single isomer, unassigned) [#161, 2-(3-hydroxy-5,10-dimethyl-9-oxo-4,8,12-triazatricyclo[9.4.0.0^2,7]pentadeca-1(11),2(7),3,5,12,14-hexaen-8-yl)-N-[4-(trifluoromethyl)phenyl]acetamide], the IC50 on system Xc^− [1] and at system Xc^− [2] was 15.8 to 39.8 nM each time.
With `Cc1cc2c(cn1)-c1cccnc1C(C)C(=O)N2CC(=O)Nc1ccc(C(F)F)cc1` (single isomer, unassigned) [#250, Enantiomer (10S) or (10R) of N-[4-(difluoromethyl)phenyl]-2-[5,10-dimethyl-9-oxo-4,8,12-triazatricyclo[9.4.0.0^2,l]pentadeca-1(15),2,4,6,11,13-hexaen-8-yl]acetamide], the “pIC50 [^14C] L-Cystine uptake assay” value on system Xc^− [1] is on record as “B (about 7.00 < pIC50 ≤ about 7.40)”. Further, the “pIC50 Cystine-induced glutamate release assay” value at system Xc^− [2] is listed as “C (about 7.40 < pIC50 ≤ about 7.80)”.

The values above are taken from patent US20260217708A1, “FUSED BENZAZEPINE DERIVATIVES FOR USE IN THE TREATMENT OF CANCER AND EPILEPSY” (UCB BIOPHARMA SRL, priority 2023, published 2026).
